Experimental data as given in patent US11091740B2, “Composition for inducing dedifferentiation into cancer stem cells comprising ribosome-activating inhibitor as active ingredient, cancer organoid culture method and anticancer drug screening platform based thereon” (priority 2016, dated 2021).

Key:
[1] = system: Cancer stem cell cultured spheroid; assay: 5-FU response of cancer stem cell cultured spheroid, PI/AnnexinV flow cytometry; assay type: cell-based; conditions: 5-FU 375 μM for 48 hours
Protocol: The drug effect close to human physiological activity can be confirmed by monitoring the anticancer drug response of heterogeneous cancer cells containing a plurality of cancer stem cells induced by the exposure of ribosome-inactivating stress. […] Cancer stem cell cultured spheroid were treated with 5-FU (375 μM) for 48 hours and apoptotic cells were quantified by flow cytometry using propidium iodide (PI) and AnnexinV-FITC (1:200) as markers. The number of apoptotic cells positive for both PI and AnnexinV for 5-FU was higher in the control (−) group, but the drug reactivity was better, but those in the general spheroid culture (DMSO) were decreased.

[2] = system: epithelial cancer cells; assay: Single versus repeated exposure to ribosome-inactivating stress, CD44/CD133 flow cytometry; assay type: cell-based; conditions: for cancer stem cells (CD44 and CD133) after a first temporary exposure: exposed once for 24 hours, spheroid cultured in stem cell medium, sub-cultured three times; for CD44 and CD133 positive stem cell groups in chronic exposure: exposure in each subculture, total of 3 exposures
Protocol: To reconfirm that ribosome-inactivating stress (RIS1, RIS2) is a key factor for inducing the dedifferentiation of epithelial cancer cells, the cells were exposed to ribosome-inactivating stress once for 24 hours, spheroid cultured in a stein cell culture medium for 6 days. In the experimental groups which sub-cultured in three times; and sub-cultured while exposing to the ribosome-inactivating stress on the optimum medium for cancer stem cell in each subculture (total of 3 exposures), cancer stem cells were compared quantitatively by flow cytometry with CD44 and CD133 as the marker thereof.

[3] = system: Colorectal cancer cell lines; assay: Cell line-based cancer organoid, CD44 (+) cells by flow cytometry; conditions: RIS-1 10 ng/mL or RIS-2 50 ng/mL pretreated for 6 hours, spheroid, organoid culture 12 days
Protocol: Colorectal cancer cell lines were pretreated with ribosome-inactivating stress, RIS-1 of 10 ng/mL or RIS-2 of 50 ng/mL for 6 hours to form spheroid. Cancer organoid is formed by using spheroid induced from cancer stem cells increased by the ribosome-inactivating stress. A cancer organoid culture technique was developed from cancer stem cells increased by ribosome-inactivating stress. 100 μl of a culture medium containing 200-400 spheroid cells of about 100 μm in size among the cultured spheroids was mixed with an equal amount of a ice-cold matrigel (BD #35424, USA) and divided as a dome in a 24-well culture dish preheated in the cell incubator. Organoid formation (changes in crypt-villus domain production, morphology and size changes, etc.) is monitored by filling the organoid culture medium (STEMCELLS) so as not to reach the cell-matrigel dome and incubating for 12 days (FIG. 7A). The final cultured organoid is tested by immunohistochemistry and flow cytometry. After washing with ice-cold PBS, the organoid was separated from the matrigel and fixed with 0.1% tritonX-100, 4% PFA and immunostained. E-cadherin, an epithelial cell factor, mucin-2, a goblet cell marker for differentiated intestinal cells and F-actin for confirming cell structure formation are examined to confirm the formation of an intestinal organoid (FIG. 7A). […]

[4] = system: colon cancer cell lines; assay: Spheroid culture with ribosome-inactivating stress exposure, CD44/CD133 flow cytometry; assay type: cell-based; conditions: RIS-1 10 ng/mL or RIS-2 50 ng/mL pretreated for 6 hours, spheroid cultured 6 days, compared with control
Protocol: Colon cancer cell lines were purchased from ATCC (Manassas, USA), a cell line distribution company. Cells were maintained with RPMI medium supplemented with 10% (v/v) fetal bovine serum (FBS) and 5% mixed antibiotics (50 units/mL penicillin and […] streptomycin) (welgene, Daegu, South Korea) in a 5% CO2-humidified incubator at 37° C. […] First, the cultured spheroid cells were dissociated into single cells by trypsinization, washed with phosphate buffer solution, incubated with FITC-conjugated CD44 (BD pharmingen) and APC-conjugated CD133 (MACS, Miltenyi Biotec) antibodies for 15 min, and then the expression of CD44 and CD133 positive cells was analyzed by flow cytometry (Becton Dickinson FACS Canto Il BD Bioscience, San Jose, Calif., USA).

[5] = system: CMT-93 mouse colorectal cancer cell line; assay: Allograft of RIS-2 pretreated cancer cells, epithelial mesenchyme transition markers by immunohistochemistry; assay type: in vivo; conditions: cells pretreated with RIS-2 50 ng/mL for 6 hours, subcutaneous in C57BL/6 mice, 5-FU i.p. on day 7, tumors excised 24 h later
Protocol: Cancer stem cells have been identified as a major cause of cancer progression, metastasis, recurrence, and resistance to anticancer drugs. In order to investigate the in vivo activity of cancer stem cells produced by the exposure to ribosome-inactivating stress, epithelial mesenchyme transition (EMT) phenomenon, which is an in vivo phenotype representing the characteristics of cancer stem cells was examined. The in vivo activity of cancer stem cells was determined by the degree of epithelial mesenchyme transition, which is verified by the decrease of E-cadherin, an epithelial cell marker and the increase of the protein expression of N-cadherin and vimentin, mesenchymal marker. For this purpose, in vivo experiment using allografts of cancer cells was performed. The CMT-93 mouse colorectal cancer cell line was cultured in DMEM (Welgene, Daegu, South Korea) supplemented with 10% (v/v) fetal bovine serum (FBS) and 5% mixed antibiotics (50 units/mL penicillin, […] streptomycin) in a 5% CO2, 37 humidified incubator at 37° C. CMT-93 cells (5×10^6) pretreated with RIS-2 (50 ng/mL) for 6 hours were resuspended with 200 μL of PBS and injected subcutaneously into a 14-week-old male C57BL/6 mice. Seven days later, […] anticancer drug 5-FU was intraperitoneally injected and tumors were excised surgically 24 h later. Solid tumors were obtained by immunohistochemistry using E-cadherin (1:200, BD Science), N-cadherin (1:200, BD Science), vimentin (1:200, Cell signaling) specific antibodies. The excised solid tumors were fixed in 4% paraformaldehyde, embedded in paraffin, and sectioned to prepare slice slide specimens. After dehydration and antibody binding, spatial expression of protein expression in tissues was investigated by 3,3-diaminobenzidine (DAB) substrate reaction and relative expression of DAB versus hematoxylin-positive cells was quantified by a tissue analysis software (Histo Quest, TissueGnotics).

## O=c1[nH]cc(F)c(=O)[nH]1 [5-FU, fluorouracil]
[1]; control (−) group
  number of apoptotic cells positive for both PI and AnnexinV: higher
[1]; general spheroid culture (DMSO)
  number of apoptotic cells positive for both PI and AnnexinV: decreased
[1]; spheroid containing cancer stem cell group induced by ribosome-inactivating stress
  drug reactivity (apoptotic cells): further reduced

## COc1ccc(C[C@H]2NC[C@H](O)[C@H]2OC(C)=O)cc1 [RIS-1, anisomycin]
[2]
  cancer stem cells (CD44 and CD133) after a first temporary exposure: maintained continuously
  CD44 and CD133 positive stem cell groups in chronic exposure: increased significantly
[3]
  CD44 (+) cancer stem cell group in cultured cancer organoid: significantly increased
[4]
  CD44 and CD133 positive cells representing cancer stem cell group: significantly increased

## CC1=C[C@H]2O[C@@H]3[C@H](O)C[C@](C)([C@@]2(CO)[C@H](O)C1=O)[C@]31CO1 [RIS-2, deoxynivalenol]
[2]
  cancer stem cells (CD44 and CD133) after a first temporary exposure: maintained continuously
  CD44 and CD133 positive stem cell groups in chronic exposure: increased significantly
[5]
  epithelial cell marker E-cadherin in solid tumors: decreased
  mesenchymal cell marker N-cadherin in solid tumors: significantly increased
  mesenchymal cell marker vimentin protein in solid tumors: significantly increased
[3]
  CD44 (+) cancer stem cell group in cultured cancer organoid: significantly increased
[4]
  CD44 and CD133 positive cells representing cancer stem cell group: significantly increased
